PMC9120017, “Inhibition mechanism of the chloride channel TMEM16A by the pore blocker 1PBC” (Nature Communications, 2022)
Where two headings read alike, the source gives them in different places.

Molecular target: T1, wild-type mouse TMEM16A (Mus musculus, UniProt Q8BHY3)
T1 construct: expressed in transfected cells; host or cells: HEK293T
T1 sequence (Q8BHY3 1-960): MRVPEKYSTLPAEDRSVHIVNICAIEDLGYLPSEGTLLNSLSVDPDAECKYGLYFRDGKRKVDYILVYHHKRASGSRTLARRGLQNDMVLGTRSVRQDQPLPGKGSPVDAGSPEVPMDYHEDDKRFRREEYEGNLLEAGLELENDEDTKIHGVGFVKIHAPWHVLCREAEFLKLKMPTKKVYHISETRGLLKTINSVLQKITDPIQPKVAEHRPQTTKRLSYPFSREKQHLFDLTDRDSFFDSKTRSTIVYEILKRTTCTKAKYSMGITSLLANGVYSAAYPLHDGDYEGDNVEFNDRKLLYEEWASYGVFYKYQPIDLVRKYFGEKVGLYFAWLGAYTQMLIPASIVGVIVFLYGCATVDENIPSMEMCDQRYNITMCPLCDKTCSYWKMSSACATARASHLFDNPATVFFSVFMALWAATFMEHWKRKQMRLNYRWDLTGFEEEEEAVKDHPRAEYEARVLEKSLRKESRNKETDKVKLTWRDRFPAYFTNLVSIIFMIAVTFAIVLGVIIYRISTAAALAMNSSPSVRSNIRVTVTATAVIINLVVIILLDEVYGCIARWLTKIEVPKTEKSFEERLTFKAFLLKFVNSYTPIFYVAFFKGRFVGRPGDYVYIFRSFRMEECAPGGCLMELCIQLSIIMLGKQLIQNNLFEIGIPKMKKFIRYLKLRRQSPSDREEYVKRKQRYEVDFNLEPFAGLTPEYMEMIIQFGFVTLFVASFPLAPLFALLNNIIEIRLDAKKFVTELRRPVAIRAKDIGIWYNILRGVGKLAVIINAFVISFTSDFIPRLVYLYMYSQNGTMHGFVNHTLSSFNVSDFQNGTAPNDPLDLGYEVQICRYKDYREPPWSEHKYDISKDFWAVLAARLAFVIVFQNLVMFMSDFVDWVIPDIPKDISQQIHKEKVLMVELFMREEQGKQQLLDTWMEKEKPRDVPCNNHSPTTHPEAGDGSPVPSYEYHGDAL
Test: Inside-out patch recording of 1PBC block, wild-type TMEM16A
Assay type: cell-based
Conditions: for remaining activity at 100 µM: read-out: I/Imax
Procedure: HEK293T cells (ATCC CRL-1573) were maintained in Dulbecco’s modified Eagle’s medium (DMEM; Sigma-Aldrich) supplemented with 10 U ml^−1 penicillin, 0.1 mg ml^−1 streptomycin (Sigma-Aldrich), 2 mM L-glutamine (Sigma-Aldrich), and 10% FBS (Sigma-Aldrich) in a humidified atmosphere containing 5% CO2 at 37 °C. HEK293S GnTI^− cells (ATCC CRL-3022) were maintained in HyClone HyCell TransFx-H medium (GE Healthcare) supplemented with 10 U ml^−1 penicillin, 0.1 mg ml^−1 streptomycin, 4 mM L-glutamine, 0.15% poloxamer 188 (Sigma-Aldrich), and 1% FBS in an atmosphere containing 5% CO2 at 185 rpm at 37 °C. The ac splice variant of mouse TMEM16A (UniProt ID: Q8BHY3), mouse TMEM16B (UniProt ID: Q8CFW1), or mouse TMEM16F (UniProt ID: Q6P9J9) bearing a 3C cleavage site, a Venus YFP, a Myc tag, and a Streptavidin-binding peptide (SBP) downstream of the open reading frame in a modified pcDNA3.1 vector (Invitrogen) were used as described previously[21],[31]. Mutations were introduced using a modified QuikChange method[58] and were verified by sequencing.
HEK293T cells were transfected with 3–4 μg DNA per 6 cm Petri dish using the calcium phosphate co-precipitation method and were used within 24–96 h after transfection. Recordings were performed on inside-out patches excised from HEK293T cells expressing the construct of interest. Patch pipettes were pulled from borosilicate glass capillaries (O.D. 1.5 mm, I.D. 0.86 mm, Sutter Instrument) and were fire-polished with a microforge (Narishige) before use. Pipette resistance was typically 3–8 MΩ when filled with the recording solutions detailed below. Seal resistance was typically 4 GΩ or higher. Voltage-clamp recordings were made using Axopatch 200B, Digidata 1550, and Clampex 10.7 (Molecular Devices). Analog signals were filtered with the in-built 4-pole Bessel filter at 10 kHz and were digitized at 20 kHz. Solution exchange was achieved using a gravity-fed system through a theta glass pipette mounted on an ultra-fast piezo-driven stepper (Siskiyou). […] All recordings were performed at 20 °C.
A symmetrical ionic condition was used throughout. Stock solution with Ca^2+-EGTA contained 150 mM NaCl, 5.99 mM Ca(OH)2, 5 mM EGTA, and 10 mM HEPES at pH 7.40. Stock solution with EGTA contained 150 mM NaCl, 5 mM EGTA, and 10 mM HEPES at pH 7.40. Free Ca^2+ concentrations were adjusted by mixing the stock solutions at the required ratios calculated using the WEBMAXC program (http://web.stanford.edu/~cpatton/webmaxcS.htm). Patch pipettes were filled with the stock solution with Ca^2+-EGTA, which has a free Ca^2+ concentration of 1 mM. 1PBC (ChemBridge) stock was reconstituted in anhydrous DMSO (Sigma-Aldrich) at 100 mM and stored at −20 °C. Working solutions with 1PBC were prepared by serial dilution. Unless otherwise stated, experiments were performed at a saturating Ca^2+ concentration as shown in Supplementary Table 1 and the primary data were corrected for current rundown as described previously[21],[25].
Concentration-response relations, obtained from the ratio of the I-V plots before and after the application of the blocker, were fitted to the Hill equation,1 I/Imax=1/1+IC50/[blocker]^h where I/Imax is the normalized current responses, IC50 defines the concentration at which inhibition is at its half-maximum, and h is the Hill coefficient.

[1] = 100 µM 1PBC, -100 mV, 2 µM Ca2+
[2] = 100 µM 1PBC, -120 mV, 2 µM Ca2+
[3] = 100 µM 1PBC, -140 mV, 2 µM Ca2+

`N#Cc1c(C(F)(F)F)cc(O)n2c1nc1ccccc12` [1PBC] was tested, and the “I/Imax scaled to open probability” value (100 µM 1PBC, 2 µM Ca2+, 80 mV) was 0.02162, the “Steady-state current (normalized)” value (100 µM 1PBC, 20 mV, 2 µM Ca2+) was 0.006925 and the remaining activity at 100 µM (100 µM 1PBC, 20 mV, 2 µM Ca2+) was 3.56%. The “Steady-state current (normalized)” value (100 µM 1PBC, 40 mV, 2 µM Ca2+) was 0.0112, the remaining activity at 100 µM (100 µM 1PBC, 40 mV, 2 µM Ca2+) was 2.97% and the “Steady-state current (normalized)” value (100 µM 1PBC, 60 mV, 2 µM Ca2+) was 0.0148. For the same molecule, the remaining activity at 100 µM (100 µM 1PBC, 60 mV, 2 µM Ca2+) was 2.68%, the “Steady-state current (normalized)” value (100 µM 1PBC, 80 mV, 2 µM Ca2+) was 0.01763 and the remaining activity at 100 µM (100 µM 1PBC, 80 mV, 2 µM Ca2+) was 2.49%. For the same molecule, the “Steady-state current (normalized)” value (100 µM 1PBC, 100 mV, 2 µM Ca2+) was 0.02038, the remaining activity at 100 µM (100 µM 1PBC, 100 mV, 2 µM Ca2+) was 2.4% and the “Steady-state current (normalized)” value (100 µM 1PBC, 120 mV, 2 µM Ca2+) was 0.024. The remaining activity at 100 µM (100 µM 1PBC, 120 mV, 2 µM Ca2+) was 2.47%, the “Steady-state current (normalized)” value (100 µM 1PBC, 140 mV, 2 µM Ca2+) was 0.02832 and the remaining activity at 100 µM (100 µM 1PBC, 140 mV, 2 µM Ca2+) was 2.6%. The “Steady-state current (normalized)” value (100 µM 1PBC, -20 mV, 2 µM Ca2+) was -0.01026, the remaining activity at 100 µM (100 µM 1PBC, -20 mV, 2 µM Ca2+) was 5.33% and the “Steady-state current (normalized)” value (100 µM 1PBC, -40 mV, 2 µM Ca2+) was -0.02602. For the same molecule, the remaining activity at 100 µM (100 µM 1PBC, -40 mV, 2 µM Ca2+) was 6.7%, the “Steady-state current (normalized)” value (100 µM 1PBC, -60 mV, 2 µM Ca2+) was -0.04778 and the remaining activity at 100 µM (100 µM 1PBC, -60 mV, 2 µM Ca2+) was 8.25%. The “Steady-state current (normalized)” value (100 µM 1PBC, -80 mV, 2 µM Ca2+) was -0.07707, the remaining activity at 100 µM (100 µM 1PBC, -80 mV, 2 µM Ca2+) was 10% and the “Steady-state current (normalized)” value [1] was -0.1118. The remaining activity at 100 µM [1] was 11.8%, the “Steady-state current (normalized)” value [2] was -0.1551 and the remaining activity at 100 µM [2] was 13.9%. The “Steady-state current (normalized)” value [3] was -0.2042, the remaining activity at 100 µM [3] was 15.9% and the IC50 (20 mV, 2 µM Ca2+) was 3.42 µM. It also gave an IC50 (40 mV, 2 µM Ca2+) of 2.77 µM, an IC50 (60 mV, 2 µM Ca2+) of 2.32 µM and an IC50 (80 mV, 2 µM Ca2+) of 2.06 µM. For the same molecule, the IC50 (100 mV, 2 µM Ca2+) was 2 µM, the IC50 (120 mV, 2 µM Ca2+) was 2.1 µM and the IC50 (140 mV, 2 µM Ca2+) was 2.41 µM. The IC50 (-20 mV, 2 µM Ca2+) was 5.63 µM, the IC50 (-40 mV, 2 µM Ca2+) was 7.34 µM and the IC50 (-60 mV, 2 µM Ca2+) was 9.2 µM. The IC50 (-80 mV, 2 µM Ca2+) was 11.6 µM, the IC50 (-100 mV, 2 µM Ca2+) was 14.1 µM and the IC50 (-120 mV, 2 µM Ca2+) was 17.2 µM. The IC50 (-140 mV, 2 µM Ca2+) was 19.9 µM, the “Selectivity for anion channels of the TMEM16 family over the scramblase TMEM16F” value (TMEM16A and TMEM16B blocked, TMEM16F current not) was “selective for anion channels of the TMEM16 family over the scramblase TMEM16F” and the “Electrical distance of 1PBC block” value (functional experiments) was 0.2-0.25. The Membrane permeability (neutral pH, implied from block from the extracellular side after intracellular application) was “freely membrane-permeable” and the IC50 (zero mV, saturating Ca2+ concentration (2 µM), applied from the intracellular side) was ~4 µM.
